Measured values taken from patent US20050215548A1 (Cyclacel Limited, priority 2002, published 2005).

These compounds were tested against T1, HDM2 (Homo sapiens, UniProt Q00987) (assay: Fluorescence polarisation competitive HDM2 binding assay). Settings: fluorescence polarisation format; Table 1; read-out: IC50 In vitro competitive HDM2 binding assay.
T1 construct: Recombinant HDM2 (1.5 μg per well) in TBS-BSA buffer
Description: This was carried out using a 96-well microtiter plate (Costar) format. Recombinant HDM2 (1.5 μg per well) in TBS-BSA buffer (50 mM Tris pH 7.4, 150 mM NaCl, and 0.1% BSA) was incubated for 5 min at room temperature in the presence of serially diluted test compound (in TBS-BSA buffer with a final concentration of 5% DMSO). Fluorescently labelled p53-derived peptide (fluorescein-[…]NH2, 0.2 μM) was added to each well and the plate was incubated at room temperature for 45 min. The fluorescence polarisation (excitation 485 nm, emission 520 nm) of the peptide was measured. IC50 values were calculated from dose-response curves.
The fluorescence polarisation competitive HDM2 binding assay described in Example 3 was used. Furthermore, the anti-proliferative potency of the compounds against three human tumour cell lines with different genetic make-up was also determined. […] The cell lines used were as follows: AGS, gastric adenocarcinoma, wild-type p53; H1299, large cell lung carcinoma, p53 null, low HDM2; SJSA-1, primitive multipotential bone sarcoma, wild-type p53, overexpressed HDM2.

T1 sequence (Q00987 whole entry): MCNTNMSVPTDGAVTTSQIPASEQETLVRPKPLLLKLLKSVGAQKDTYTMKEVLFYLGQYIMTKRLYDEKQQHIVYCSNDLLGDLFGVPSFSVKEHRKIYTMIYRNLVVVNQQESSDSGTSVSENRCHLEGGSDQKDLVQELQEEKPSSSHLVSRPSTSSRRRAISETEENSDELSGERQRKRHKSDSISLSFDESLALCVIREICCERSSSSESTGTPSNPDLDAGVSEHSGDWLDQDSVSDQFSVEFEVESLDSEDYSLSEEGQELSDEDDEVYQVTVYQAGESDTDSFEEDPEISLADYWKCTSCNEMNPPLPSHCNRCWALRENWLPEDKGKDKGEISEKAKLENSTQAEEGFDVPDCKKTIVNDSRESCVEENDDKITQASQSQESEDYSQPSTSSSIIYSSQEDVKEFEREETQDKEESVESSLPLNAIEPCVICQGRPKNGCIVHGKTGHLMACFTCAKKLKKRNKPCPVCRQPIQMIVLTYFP

| SMILES | IC50 [µM] |
| --- | --- |
| O=[N+]([O-])c1cc(S(=O)(=O)Nc2cccc(C(F)(F)F)c2)sc1Cl [Compound 1, 5-Chloro-4-nitrothiophene-2-sulfonic acid (3-trifluoromethylphenyl)amide] | 409 ± 84 |
| O=S(=O)(Nc1cc(C(F)(F)F)cc(C(F)(F)F)c1)c1cc(Br)c(Br)s1 [Compound 8, 4,5-Dibromothiophene-2-sulfonic acid (3,5-bis-trifluoromethylphenyl)amide] | 407 |
| O=S(=O)(Nc1ccc(Cl)cc1)c1ccc(Cl)s1 [Compound 10, 5-Chlorothiophene-2-sulfonic acid (4-chlorophenyl)amide] | 320 |
| O=S(=O)(Nc1cc(C(F)(F)F)cc(C(F)(F)F)c1)c1ccc(Cl)s1 [Compound 11, 5-Chlorothiophene-2-sulfonic acid (3,5-bis-trifluoromethylphenyl)amide] | 435 ± 76 |
| CSc1ncc(-c2ccc(S(=O)(=O)Nc3cc(Cl)cc(Cl)c3)s2)cn1 [Compound 12, 5-(2-Methylsulfanyl-pyrimidin-5-yl)-thiophene-2-sulfonic acid (3,5-dichlorophenyl)-amide] | 374 ± 12 |
| O=S(=O)(Nc1ccc(C(F)(F)F)cc1)c1ccc(-c2ncco2)cc1 [Compound 13, 4-Oxazol-2-yl-N-(4-trifluoromethylphenyl)benzenesulfonamide] | 494 |
| O=S(=O)(Nc1cc(C(F)(F)F)cc(C(F)(F)F)c1)c1ccc(-c2ncco2)cc1 [Compound 14, N-(3,5-Bis-trifluoromethylphenyl)-4-oxazol-2-yl-benzenesulfonamide] | 448 ± 55 |
| O=[N+]([O-])c1cccc(S(=O)(=O)Nc2ccc(Cl)cc2)c1 [Compound 19, N-(4-Chlorophenyl)-3-nitrobenzenesulfonamide] | 295 ± 45 |
| O=[N+]([O-])c1cccc(S(=O)(=O)Nc2ccc(C(F)(F)F)cc2)c1 [Compound 20, 3-Nitro-N-(4-trifluoromethylphenyl)benzenesulfonamide] | 482 ± 26 |
| O=[N+]([O-])c1cccc(S(=O)(=O)Nc2ccc(Cl)cc2Cl)c1 [Compound 22, N-(2,4-Dichlorophenyl)-3-nitrobenzenesulfonamide] | 441 ± 69 |
| O=S(=O)(Nc1ccc(Cl)c(Cl)c1)c1ccc(Cl)s1 [Compound 26, 5-Chlorothiophene-2-sulfonic acid (3,4-dichlorophenyl)amide] | 295 ± 36 |
| O=[N+]([O-])c1cc(S(=O)(=O)Nc2ccc(Cl)c(Cl)c2)ccc1Cl [Compound 30, 4-Chloro-N-(3,4-dichlorophenyl)-3-nitrobenzenesulfonamide] | 427 ± 3 |
| Cn1ncc(-c2ccc(S(=O)(=O)Nc3ccc(C(F)(F)F)cc3)s2)c1C(F)(F)F [Compound 31, 5-(1-Methyl-5-trifluoromethyl-1H-pyrazol-4-yl)-thiophene-2-sulfonic acid (4-trifluoromethylphenyl)-amide] | 350 ± 10 |
| O=S(=O)(Nc1ccc(F)cc1)c1cc(S(=O)(=O)Nc2ccc(F)cc2)c(Cl)s1 [Compound 32, 5-Chlorothiophene-2,4-disulfonic acid bis-[(4-fluorophenyl)-amide]] | 408 ± 31 |
| Cc1ccc(S(=O)(=O)Nc2ccc(C(F)(F)F)cc2)cc1[N+](=O)[O-] [Compound 34, 4-Methyl-3-nitro-N-(4-trifluoromethylphenyl)benzenesulfonamide] | 295 ± 23 |
| Cc1ccc(S(=O)(=O)Nc2ccc(C(F)(F)F)cc2)cc1N [Compound 36, 3-Amino-4-methyl-N-(4-trifluoromethyl-phenyl)benzenesulfonamide] | 429 |
| Cc1ccc(S(=O)(=O)Nc2ccc(Cl)cc2)cc1[N+](=O)[O-] [Compound 37, N-(4-Chlorophenyl)-4-methyl-3-nitrobenzenesulfonamide] | 294 ± 52 |

More lines, now with the values ahead:

| IC50 [µM] | SMILES |
| --- | --- |
| 102 ± 13 | O=S(=O)(Nc1ccc(C(F)(F)F)cc1)c1ccc(Cl)s1 [Compound 9, 5-Chlorothiophene-2-sulfonic acid (4-trifluoromethylphenyl)amide] |
| 218 ± 15 | O=S(=O)(Nc1ccc(C(F)(F)F)cc1)c1cc(Br)c(Cl)s1 [Compound 15, 4-Bromo-5-chlorothiophene-2-sulfonic acid (4-trifluoromethylphenyl)amide] |
| 290 ± 54 | O=S(=O)(Nc1ccc(Cl)cc1)c1ccc(Br)s1 [Compound 16, 5-Bromothiophene-2-sulfonic acid (4-chlorophenyl)amide] |
| 291 | O=S(=O)(Nc1cc(Cl)cc(Cl)c1)c1ccc(Br)s1 [Compound 17, 5-Bromothiophene-2-sulfonic acid (3,5-dichlorophenyl)amide] |
| 172 ± 21 | O=S(=O)(Nc1cc(C(F)(F)F)cc(C(F)(F)F)c1)c1ccc(Br)s1 [Compound 18, 5-Bromothiophene-2-sulfonic acid (3,5-bis-trifluoromethylphenyl)amide] |
| 209 ± 38 | O=[N+]([O-])c1cccc(S(=O)(=O)Nc2cc(C(F)(F)F)cc(C(F)(F)F)c2)c1 [Compound 21, N-(3,5-Bis-trifluoromethylphenyl)-3-nitrobenzenesulfonamide] |
| 146 ± 5 | O=S(=O)(Nc1ccc(C(F)(F)F)cc1)c1ccc(S(=O)(=O)c2ccccc2)s1 [Compound 23, 5-Benzenesulfonylthiophene-2-sulfonic acid (4-trifluoromethylphenyl)-amide] |
| 243 ± 59 | O=S(=O)(Nc1ccc(Cl)cc1)c1ccc(S(=O)(=O)c2ccccc2)s1 [Compound 24, 5-Benzenesulfonylthiophene-2-sulfonic acid (4-chlorophenyl)amide] |
| 288 ± 39 | O=S(=O)(Nc1cc(Cl)cc(Cl)c1)c1ccc(S(=O)(=O)c2ccccc2)s1 [Compound 25, 5-Benzenesulfonylthiophene-2-sulfonic acid (3,5-dichlorophenyl)amide] |
| 199 ± 28 | O=S(=O)(Nc1cccc(C(F)(F)F)c1)c1cc(Br)c(Br)s1 [Compound 27, 4,5-Dibromothiophene-2-sulfonic acid (3-trifluoromethylphenyl)amide] |
| 160 ± 31 | O=S(=O)(Nc1ccc(Cl)c(Cl)c1)c1cc(Br)c(Br)s1 [Compound 28, 4,5-Dibromothiophene-2-sulfonic acid (3,4-dichlorophenyl)amide] |
| 129 ± 22 | O=[N+]([O-])c1cc(S(=O)(=O)Nc2cc(C(F)(F)F)cc(C(F)(F)F)c2)ccc1Cl [Compound 29, N-(3,5-Bis-trifluoromethylphenyl)-4-chloro-3-nitrobenzenesulfonamide] |
| 249 ± 30 | CC(C)CN(c1ccc(Cl)cc1)S(=O)(=O)c1cc([N+](=O)[O-])c(Cl)s1 [Compound 58, 5-Chloro-4-nitro-thiophene-2-sulfonic acid (4-chloro-phenyl)-isobutyl-amide] |
| 40 ± 1 | O=[N+]([O-])c1cc(S(=O)(=O)Nc2nc3ccccc3[nH]2)sc1Cl [Compound 59, 5-Chloro-4-nitro-thiophene-2-sulfonic acid (1H-benzo-imidazol-2-yl)-amide] |
| 67 ± 1 | O=[N+]([O-])c1cc(S(=O)(=O)Nc2ccccc2)sc1Cl [Compound 62, 5-Chloro-4-nitro-thiophene-2-sulfonic acid phenylamide] |
| 135 ± 19 | O=S(=O)(Nc1ccc(Cl)cc1)c1cc(S(=O)(=O)Nc2ccc(Cl)cc2)c(Cl)s1 [Compound 70, 5-Chloro-thiophene-2,4-disulfonic acid bis-[(4-chloro-phenyl)-amide]] |
| 237 ± 35 | CCc1sc(S(=O)(=O)Nc2ccc(Cl)cc2)cc1[N+](=O)[O-] [Compound 71, 5-Ethyl-4-nitro-thiophene-2-sulfonic acid (4-chloro-phenyl)-amide] |
